SMILES strings stand for the structures.

For the compound `COc1cccc2c1C(=O)c1c(O)c3c(c(O)c1C2=O)CC(O)(C(C)O)CC3OC1CC(N2CCOCC2)C(O)C(C)O1` (stereo not given), the log partition coefficient (logP) (as a rule, the decadic logarithm of the partition coefficient of the neutral form, usually between octanol and water) came to 2.03.
As for `COc1cccc(S(I)=C(N(C)C)N(C)C)c1` (stereo not given), the log partition coefficient (logP) was -0.5.
The value for `Cc1c(Cl)cccc1Nc1ccccc1CC(=O)O` was 4.64; that for `C[C@]12CCC(=O)C=C1CC[C@@H]1[C@@H]2CC[C@]2(C)C(=O)CC[C@@H]12` was 2.75; that for `CCOP(=S)(OCC)SCSCC` was 3.56.
As to `COc1ccc2c(c1)C13CCN4CC5=CCOC6CC(=O)N2C1C6C5CC43` (stereo not given), the logP is 1.85.
For `CCCCN(CCCC)CC(O)c1ccccc1` (stereo not given), the log partition coefficient (logP) stood at 3.16.
For `N#CN/C(N)=N/c1ccccc1`, the log partition coefficient (logP) is 1.05.
Consider `[O-][n+]1cccc2ccccc21`, for which the logP is 0.36.
The value for `O=C(O)c1ccc(C(F)(F)F)cc1` was 3.1; that for `Oc1cnc2ccccc2c1` was 2.08; that for `COc1ccc(N)cc1` was 0.95.
The compound `O=C(O)COc1ccc(Cl)c([N+](=O)[O-])c1` had a logP of 1.85.
The compound `Cc1ccnc2c(O)ccc(O)c12` showed a logP of 1.59.
To `CC(=O)Nc1ccc(C=O)cc1` belongs 1.25; to `CC(=O)Nc1ccc(OCC(O)CNC(C)C)cc1` (stereo not given), 0.79; to `COC(=O)C1C(C=C(Cl)Cl)C1(C)C` (stereo not given), 3.63.
The value for `C=CC#N` was 0.25; that for `CCCC(C)C1(CC)C(=O)N=C(O)NC1=O` (stereo not given) was 2.1.
Compound `CC#CC#CC` displayed a lipophilicity (logP) of 2.24.
The value for `CNC(=O)Oc1cc(C)c(SC)c(C)c1` was 2.92; that for `CCCc1ccncc1` was 2.1; that for `Nc1nc(N)nc(-c2ccccc2[N+](=O)[O-])n1` was 0.49.
The value for `CCCCNC(N)=O` was 0.41; that for `CN(C)P(=O)(N(C)C)N(C)C` was 0.28; that for `O=C(c1ccccc1)C(F)(F)F` was 2.15.
Take `Nc1cc(N2CCCCC2)nc(N)[n+]1[O-]`: the log partition coefficient (logP) was determined as 1.24.
As for `CCCCC1C(=O)NC(=O)NC1=O`, the logP stood at 0.77.
The value for `C#CCCC(C)=O` was 0.58.
The compound `CNCCN(C)C` came in with a log partition coefficient (logP) of -0.2.
For `CCOC(=O)c1c[nH]cc1C`, the log partition coefficient (logP) was 2.14.
`CC(=O)Nc1cccc2cccnc12` displayed a logP of 1.91.
`CC(C)C(C)C` displayed a logP of 3.42.
On to `Nc1nccc(=O)[nH]1`, for which the log partition coefficient (logP) was -0.99.
As for `COc1cccc(OCC(=O)O)c1`, the lipophilicity (logP) was 1.38.
`CCNc1ccccc1` displayed a lipophilicity (logP) of 2.16.
To `Oc1cnc2ccccc2n1` belongs 0.8; to `OCCn1nnc2ccccc21`, 0.5; to `COc1cc2c(c(OC)c1OC)-c1ccc(=O)c(OC)cc1[C@@H](NC(=O)C(F)(F)F)CC2`, 2.08.
`CC(=O)OC(OC(C)=O)c1ccc([N+](=O)[O-])o1`: the logP was 1.06.
Compound `C[C@@H](N)[C@@H](O)c1ccccc1` yielded a logP of 0.67.
To `COc1ccc(C(c2ccc(OC)cc2)C(C)[N+](=O)[O-])cc1` (stereo not given) belongs 3.87; to `CCOC(=O)CN(C(=O)CCl)c1c(CC)cccc1CC`, 3.6; to `FCC1CO1` (stereo not given), -0.16.
The compound `COc1cccc(O)c1` had a logP of 1.34.
Take `COc1ccc(C(=O)NN)cc1`: the log partition coefficient (logP) is 0.25.
`COc1cccc(CC(=O)O)c1` gave a logP of 1.5.
`COC(=O)[C@@H]1C2CCC(C[C@@H]1OC(=O)c1ccccc1)N2C` (stereo not given in full) gave a logP of 2.3.
The value for `OC(c1ccccc1)C(O)c1ccccc1` (stereo not given) was 1.91; that for `CC(C)NNC(=O)COc1cccc(Cl)c1` was 1.91; that for `S=C=Nc1cccc2ccccc12` was 4.34.
`NS(=O)(=O)c1cc2c(cc1Cl)NC(CCl)NS2(=O)=O` (stereo not given) had a log partition coefficient (logP) of 0.11.
`CCCCCC(C)=O` displayed a log partition coefficient (logP) of 1.98.
The compound `N#CCc1ccccc1` registered a logP of 1.56.
Take `O=NN1CCN(N=O)CC1`: the logP was -0.85.

These data come from the OPERA property sets (Mansouri et al. 2018).
